These results are taken from paper PMC13065080, “Discovery of a potent anti-Zika virus benzamide series targeting the viral protein NS4B” (PLOS Pathogens, 2026).

Where two headings read alike, the source gives them in different places.

One series concerns ZIKV-RLuc. Kind of series: microbe, parasite or virus in culture. The class given is cell-based, Zika virus.
For series [1], the system named is ZIKV PLCal. As to the kind of experiment: CPE-based anti-ZIKV concentration-response assay (96-well). The format is cell-based, Zika virus.
A further series can be described thus: in vitro. Particulars: African green monkey, CC50 Vero76.
A further series has as its system ZIKV-RLuc NS4B A245T. The class given is cell-based, Zika virus.
The test system of a further series is ZIKV-RLuc NS4B V241L. The format is cell-based, Zika virus.
The next series concerns ZIKV-RLuc NS4B V248G. The format is cell-based, Zika virus.
The test system of series [2] is ZIKV PLCal. As to the kind of experiment: Virus yield (titer) reduction assay in Huh 7.5.1 cells. The class given is cell-based, Zika virus. Particulars: 1 µM.
A further series concerns CHIKV. As to the kind of experiment: microbe, parasite or virus in culture. Particulars: Vero 76; read-out: EC50-CPE CHIKV. The class given is cell-based.
A further series relates to ZIKV FLR. As to the kind of experiment: microbe, parasite or virus in culture. The format is cell-based. Particulars: CPE-protection.
Series [3] relates to ZIKV PLCal. As to the kind of experiment: CPE-based phenotypic HTS assay (1536-well). The class given is cell-based, Zika virus. The conditions noted are these: n = 10, uridine supplemented. The method, then: To begin, 600 cells at 2.5 μL/ well of Vero 76 cells in MEM-E supplemented with 10% FBS and 1X Antibiotic-Antimycotic (Gibco 15240-062) were dispensed to 1536 well plate (Aurora EBB0-40000A) and incubated at 37 °C in humidified incubators with 5% CO2 for 24 hours. After that, 30 nL of each compound or vehicle (75% DMSO) were transferred using pintool and further incubated for 2 hours. […] For the negative control wells (N = 24/plate), only virus dilution media was dispensed. Positive control wells contained virus and cells (N = 24/plate). After incubation at 37 °C in humidified incubators with 5% CO2 for 72 hours, plates were incubated for 10 minutes at room temperature, followed by dispensing 5 μL/well CellTiter Glo (Promega). Luminescent signal was detected using PHERAstar FSX (BMG Labtech).
In the primary screen, compounds were tested at a single concentration in singlicate at a final nominal concentration of 6.95 μM. Raw assay data was imported into UF Scripps’ corporate database and subsequently analyzed using Symyx software. Activity of each compound was calculated on a per-plate basis using the following equation: Percent Response of compound = 100*((Test Well-Median Data Wells)/ (Median High Control - Median Data Wells)). […]

The next series has as its system ZIKV DAK-41525-MA. Kind of series: CPE-protection assay, ZIKV DAK-41525-MA. The format is cell-based, Zika virus.
Another series deals with DENV Type 4 H241. Kind of series: microbe, parasite or virus in culture. The class given is cell-based. Particulars: CPE-protection; read-out: EC50 DENV Type 4 H241.
The test system of another series is ZIKV Ib H30656. Kind of series: microbe, parasite or virus in culture. The conditions noted are these: CPE-protection. The format is cell-based.
The test system of the next series is YFV 17D. Kind of series: microbe, parasite or virus in culture. The class given is cell-based. The conditions noted are these: CPE-protection.
In another series the test system is JEV SA-14. Kind of series: CPE-protection assay, JEV. The class given is cell-based, Japanese encephalitis virus.
For the next series, the system named is ZIKV PRVABC59. As to the kind of experiment: microbe, parasite or virus in culture. The format is cell-based. Particulars: CPE-protection.
The subject of another series is WNV NY-99. Kind of series: CPE-protection assay, WNV. The format is cell-based, West Nile virus.
In another series the test system is ZIKV MR766. Kind of series: microbe, parasite or virus in culture. The conditions noted are these: CPE-protection. The class given is cell-based.
Setting [4] is: wild type ZIKV-RLuc, Vero 76, MOI 0.1, three days, read-out: EC50 ZIKV-RLuc.
The mark [5] stands for this setting: Vero 76, MOI 0.05, 3-day incubation, CellTiter-Glo, read-out: EC50-CPE ZIKV-PLCal.
[6] abbreviates: Zika virus, Vero 76, 72 h, wild type ZIKV-RLuc, Vero 76, MOI 0.1, three days, read-out: EC50 ZIKV-RLuc.
Where [7] appears, read: Zika virus, 72 h, Vero 76, MOI 0.05, 3-day incubation, CellTiter-Glo, read-out: EC50-CPE ZIKV-PLCal.

The molecule `O=C(NC1CC2CCC1C2)c1ccc(C2CC2)cc1` (stereo not drawn) [MWAC-3990, N-((exo)-bicyclo[2.2.1]heptan-2-yl)-4-cyclopropylbenzamide] came in with a CC50 in the series with Vero76 of 22.7 µM. Besides, the 50% effective concentration (EC50) in the series with ZIKV-RLuc (setting [4]) is 3.01 ± 1.11 µM; with ZIKV PLCal [1] (setting [5]) it was 33.1 ± 25.5 µM.

With `COC(C)(C)c1ccc(C(=O)NC2CC3CCC2C3)cc1` (stereo not drawn) [MWAC-3998, N-((exo)-bicyclo[2.2.1]heptan-2-yl)-4-(2-methoxypropan-2-yl)benzamide], the CC50 in the series with Vero76 was over 50 µM. For the same molecule, the EC50 in the series with ZIKV-RLuc (setting [4]) is 0.76 ± 0.05 µM; in the series with ZIKV PLCal [1] (setting [5]) it was 2.72 ± 1.24 µM.

In the series “in vitro”, `CC(C)(C)c1ccc(C(=O)NC2CCOC2)cc1` (stereo not shown) [MWAC-3509] had a CC50 of over 50 µM. Moreover, the results for the EC50 in the series with ZIKV-RLuc (setting [6]) and in the series on ZIKV PLCal [1] (setting [7]) were 6.1 µM and 18 µM, respectively.

`CC(C)c1ccc(C(=O)NC2CC3CCC2C3)cc1` (stereo not drawn) [MWAC-3991, N-((exo)-bicyclo[2.2.1]heptan-2-yl)-4-isopropylbenzamide]: in the series on Vero76, the CC50 was over 50 µM. Further, the EC50 with ZIKV-RLuc (setting [4]) was 0.72 ± 0.22 µM; in the series with ZIKV PLCal [1] (setting [5]) it was 2.58 ± 1.39 µM.

`CC(NC(=O)c1ccc(C(C)(C)C)cc1)c1ccncc1` (stereo not shown) [MWAC-3510]: the CC50 in “in vitro” is over 48 µM. The EC50 was 15 µM in the series with ZIKV-RLuc (setting [6]) and over 50 µM in the series on ZIKV PLCal [1] (setting [7]).

Turning to `CC(C)(C)c1ccc(C(=O)NC2CCCCCC2)cc1` [MWAC-4001, 4-(tert-butyl)-N-cycloheptylbenzamide], the EC50 in the series with ZIKV-RLuc NS4B A245T turned out to be 1.07 ± 0.16 µM; in the series with ZIKV-RLuc (setting [6]), 0.04 ± 0.006 µM; in the series with ZIKV-RLuc (Zika virus, Fig 7, read-out: RLuc EC50), 0.05 µM; in the series with ZIKV-RLuc NS4B V241L it was 24 µM; in the series on ZIKV PLCal [1] (Zika virus, Fig 7, read-out: CPE EC50), 0.09 µM; in the series with ZIKV-RLuc NS4B V248G it was 10.1 ± 0.81 µM. Further, the “Fold-increase / fold-change of EC50, NS4B A245T vs wild type” value in the series on ZIKV-RLuc NS4B A245T turned out to be 25.1. The molecule further had a CC50 in the series “in vitro” of 12 µM. For the same molecule, the “Fold-change of EC50, Wt” value in the series on ZIKV-RLuc (ZIKV RLuc assay, reference) is 1. In the series with ZIKV-RLuc NS4B V241L, the “Fold-increase / fold-change of EC50, NS4B V241L vs wild type” value is on record as 564.2. Besides, the “Fold-increase / fold-change of EC50, NS4B V248G vs wild type” value in the series on ZIKV-RLuc NS4B V248G is listed as 238.2. The “VYR: Virus Yield reduction (Log 10)” value in the series with ZIKV PLCal [2] is -2.68 ± 0.36 Log 10.

For the molecule `CC(C)(C)c1ccc(C(=O)NC2CCN(Cc3ccccc3)CC2)cc1` [MWAC-3512], the CC50 in the series “in vitro” was 58 µM. The EC50 in the series with ZIKV-RLuc (setting [6]) was 7.4 µM; with ZIKV PLCal [1] (setting [7]), 44 µM.

In turn, `CC(C)(O)c1ccc(C(=O)NC2CC3CCC2C3)cc1` (stereo not drawn) [MWAC-3995, N-((exo)-bicyclo[2.2.1]heptan-2-yl)-4-(2-hydroxypropan-2-yl)benzamide] came in with a CC50 with Vero76 of over 50 µM. The figures for the EC50 in the series on ZIKV-RLuc (setting [4]) and in the series with ZIKV PLCal [1] (setting [5]) were 13.9 µM and 39 µM, respectively.

In the case of `COc1ccc(C(C)NC(=O)c2ccc(C(C)(C)C)cc2)cc1` (racemic) [MWAC-3489], the EC50 in the series on ZIKV-RLuc (setting [4]) is 1.22 ± 0.86 µM; with CHIKV, over 50 µM.

Consider `C#C[C@@]1(O)[C@H](O)[C@@H](CO)O[C@H]1n1ccc2c(N)ncnc21` [NITD-008, reference compound], for which the EC50 in the series on ZIKV FLR amounted to 1.24 ± 0.09 µM; in the series on ZIKV PLCal [3], 0.8 ± 0.037 µM; in the series on ZIKV-RLuc NS4B A245T (ZIKV RLuc assay) it was 0.28 µM; with ZIKV DAK-41525-MA, 0.89 ± 0.22 µM; with DENV Type 4 H241, 0.18 ± 0.12 µM; with ZIKV Ib H30656, 1.43 ± 0.23 µM. Moreover, the EC50 with YFV 17D was 0.27 ± 0.12 µM; in the series on ZIKV-RLuc (setting [4]) it was 0.31 ± 0.13 µM; in the series with CHIKV it was over 50 µM; with ZIKV-RLuc NS4B V241L (ZIKV RLuc assay), 0.76 µM; with ZIKV PLCal [1] (setting [5]), 0.36 ± 0.27 µM; with JEV SA-14, 1.85 ± 1.1 µM. The EC50 in the series on ZIKV PRVABC59 came to 0.69 ± 0.11 µM; in the series with ZIKV-RLuc NS4B V248G (ZIKV RLuc assay) it was 0.2 µM; with WNV NY-99, 3 ± 2.5 µM; with ZIKV MR766 it was 1.76 ± 0.2 µM. Moreover, the “Fold-increase / fold-change of EC50, NS4B A245T vs wild type” value with ZIKV-RLuc NS4B A245T (ZIKV RLuc assay) was 1.29. In the series on Vero76, this molecule showed a CC50 of 19 ± 10.3 µM. Also, the “Fold-increase / fold-change of EC50, NS4B V241L vs wild type” value with ZIKV-RLuc NS4B V241L (ZIKV RLuc assay) is 3.44. In addition, the “Fold-increase / fold-change of EC50, NS4B V248G vs wild type” value in the series with ZIKV-RLuc NS4B V248G (ZIKV RLuc assay) is 0.93.

As usually defined, the EC50 is the concentration that produces a half-maximal response.
